Publication PMC3820767, “Turning Defense into Offense: Defensin Mimetics as Novel Antibiotics Targeting Lipid II” (PLoS Pathogens, 2013)

Assays:
[1] = test system: Escherichia coli ATCC 25922; test: Antibacterial killing, 96-well turbidimetric (modified vCC) assay; type: cell-based; details: for active against E.coli (IC100%): Table S3, concentration at which 100% killing occurred, no bacterial regrowth, No = not active; for Bacterial Killing E. coli: concentration resulting in 100% killing after 30 min exposure, modified vCC assay
In short: (§1)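 For the S. pneumoniae strains, MIC values follow CLSI broth microdilution standards. The staphylococcal and E. coli killing assay instead pre-incubated bacteria with compound for 30 min in 10 mM phosphate buffer containing 5% DMSO before adding 2× Mueller-Hinton medium, monitoring growth over 12 hours.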

[2] = test system: Staphylococcus aureus ATCC 29213; test: as above; type: cell-based; details: concentration resulting in 100% killing after 30 min exposure, modified vCC assay
In short: as §1

[3] = Cytotoxicity by MTT assay; type: cell-based, human; details: human, Caco-2 cells; concentration resulting in 50% cell survival, MTT, 24 h; read-out: Cytotoxicity (C50%) Caco-2
[4] = test system: Enterococcus faecalis (VRE) MMX848; test: Broth microdilution susceptibility testing (CLSI); type: cell-based; details: Enterococcus faecalis, VRE, read-out: MIC Enterococcus faecalis (VRE) 848-NA
Procedure: (§2) The antibacterial activity of defensin mimetics against Staphylococcus aureus ATCC 29213 and Escherichia coli 25922 was carried out in a 96-well turbidimetric assay essentially as described previously with the following modifications: bacteria were exposed for 30 min to compounds in 10 mM phosphate buffer containing 5% DMSO prior to addition of 2× Muller-Hinton medium. Bacterial growth was monitored for 12 hours and data were analyzed as described. Determination of MICs was performed by Micromyx, LLC (Kalamazoo, Michigan) according to CLSI standards.

[5] = test system: Enterococcus faecalis MMX101-ATCC 29212; test: Broth microdilution susceptibility testing (CLSI); type: cell-based; details: Enterococcus faecalis, ATCC29212, read-out: MIC Enterococcus faecalis 101-29212
Procedure: as §2

[6] = test system: Escherichia coli MMX102-ATCC 25922; test: Broth microdilution susceptibility testing (CLSI); type: cell-based; details: for MIC: Escherichia coli, ATCC25922, read-out: MIC Escherichia coli 102-25922
Procedure: as §2

[7] = test system: Pseudomonas aeruginosa MMX103-ATCC 27853; test: Broth microdilution susceptibility testing (CLSI); type: cell-based; details: Pseudomonas aeruginosa, ATCC27853, read-out: MIC Pseudomonas aeruginosa 103-27853
Procedure: as §2

[8] = test system: Staphylococcus aureus (MRSA) MMX757; test: Broth microdilution susceptibility testing (CLSI); type: cell-based; details: Staphylococcus aureus, MRSA, read-out: MIC Staphylococcus aureus (MRSA) 757-NA
Procedure: as §2

[9] = test system: Staphylococcus aureus MMX100-ATCC 29213; test: Broth microdilution susceptibility testing (CLSI); type: cell-based; details: Staphylococcus aureus, ATCC29213, read-out: MIC Staphylococcus aureus 100-29213
Procedure: as §2

[10] = test system: Streptococcus pneumoniae MMX1195-ATCC 49619; test: Broth microdilution susceptibility testing (CLSI); type: cell-based; details: Streptococcus pneumoniae, ATCC49619, read-out: MIC Streptococcus pneumoniae 1195-49619
Procedure: as §2

[11] = test system: S. aureus MMX100 (ATCC 29213); test: Macromolecular synthesis assays (mechanism of action); type: cell-based, Staphylococcus aureus
Procedure: Macromolecular synthesis inhibition by BAS00127538 and 1499-1221 were investigated using S. aureus MMX100 (ATCC 29213). Cells were grown at 35°C overnight on Tryptic Soy Agar Broth (Remel, Lenexa, KS), and growth from the plate was used to inoculate 15 ml of Mueller Hinton Broth. The culture was grown to early exponential growth phase (OD600 = 0.2 to 0.3) while incubating in a shaker at 35°C and 150 rpm. For each macromolecular assay, the test agents 1499-1221 and BAS00127538 were added at either 0, 0.25, 0.5, 1, 2, or 4, -fold their respective MIC values for S. aureus ATCC 29213.
For DNA and protein synthesis, 100 µl of cell culture reaching early exponential phase was added to triplicate wells containing various concentrations of test compound or control antibiotics (2.5 µl) at 40× the final concentration in 100% DMSO (0.1% methanol in water for Rifampicin). A 2.5% DMSO treated culture served as the “no drug” control for all experiments. Cells were added in 1.25× strength MHB to account for the volume of drug added to each reaction, or in M9 minimal medium for protein synthesis reactions. Following a 5 min incubation at room temperature either [^3H]Thymidine (DNA synthesis) or [^3H]Leucine (protein synthesis) was added at 0.5–1.0 µCi per reaction, depending on the experiment. Reactions were allowed to proceed at room temperature for 15–40 min and then stopped by adding 12 µl of cold 5% trichloroacetic acid (TCA) or 5% TCA/2% casamino acids (protein synthesis). Reactions were incubated on ice for 30 min and the TCA precipitated material was collected on a 25 mm GF/1.2 µm PES 96 well filter plate (Corning). After washing five times with 200 µl per well of cold 5% TCA, the filters were allowed to dry, and then counted using a Packard Top Count microplate scintillation counter.
For cell wall synthesis, bacterial cells in early exponential growth phase were transferred to M9 minimal medium and added to 1.5 ml eppendorf tubes (100 µl/tube) containing various concentrations of test compound or control antibiotics (2.5 µl) at 40× the final concentration in 100% DMSO as described above. Following a 5 min incubation at 37°C, [^14C] N-acetyl-glucosamine (0.4 µCi/reaction) was added to each tube and incubated for 45 min in a 37°C heating block. […] After washing three times with 5 ml of 0.1% SDS, the filters were rinsed two times with 5 ml of deionized water, allowed to dry, and then counted using a Beckman LS3801 liquid scintillation counter.
For lipid synthesis, bacterial cells were grown to early exponential growth phase in MHB and 100 µl was added to 1.5 ml Eppendorf tubes (in triplicate) containing various concentrations of test compound or control antibiotics as described above. […] Samples were then counted via liquid scintillation counting. […]

Row | SMILES | active against E.coli (IC100%) [1] | Bacterial Killing E. coli [1] [µM] | Bacterial Killing S. aureus [2] [µM] | IC50 at 24 h [3] [µM] | MIC [4] [µg/mL] | MIC [5] [µg/mL] | MIC Escherichia coli 102-25922 [6] [µg/mL] | MIC [6] [µg/mL] | MIC [7] [µg/mL] | MIC [8] [µg/mL] | MIC [9] [µg/mL] | MIC [10] [µg/mL] | inhibition of DNA, lipid or protein synthesis ([11]; 1× MIC) | inhibition of cell wall synthesis ([11]; 1× MIC, [14C]N-acetyl-glucosamine incorporation) | DNA, protein and lipid synthesis ([11]; elevated concentrations (above 1× MIC)) | likely primary mechanism of action ([11]; mechanism of action studies, Figure S4)
1 | CN1/C(=C/C=C/c2cc(-c3ccccc3)cc(-c3ccccc3)[o+]2)C(C)(C)c2ccccc21 [BAS00127538, 2,4-diphenyl-6-[(1E)-3-[(2E)-1,3,3-trimethyl-2,3-dihydro-1H-indol-2-ylidene]prop-1-en-1-yl]-1$l^4-pyran-1-ylium] | 7,8 µM | 7.8 | 0.244 | 2.7 | 1 | 1 | 4 | 4 | > 8 | 0.5 | 0.5 | 8 | not DNA, lipid or protein synthesis | significantly inhibited cell wall synthesis | reduced | –
2 | CN(C)c1ccc(/C=C/c2cc(-c3ccccc3)[o+]c(-c3ccccc3)c2)cc1 [Compound 1499-1221] | 125 µM | 125 | 0.031 | 8.9 | 2 | 2 | – | > 16 | > 16 | 0.5 | 0.25 | > 8 | – | – | – | membrane perturbation
